According to US12612424B2, “HPK1 inhibitors and uses thereof” (Regor Pharmaceuticals, Inc., priority 2019, dated 2026):

Key:
[1] = molecular target: HPK1 (Homo sapiens, UniProt Q92918); assay: HPK1 biochemical assay (ADP-GLO Kinase Assay); details: B*: testing performed in a first testing facility; read-out: HPK1 IC50 (nM) Relative, B*
Summary of the method: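 HPK1 (0.6 ng/μL final) activity was followed with MBP substrate and 10 μM ATP in Tris pH 7.5/MgCl2/BSA/DTT buffer, measured by ADP-Glo luminescence. Compounds were tested as 3-fold dilutions from 10 μM. IC50 came from a three-parameter logistic fit, with inhibition normalised to high/low controls.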

[2] = molecular target: T1, JAK3 (Homo sapiens, UniProt P52333); assay: JAK3 biochemical assay (ADP-GLO Kinase Assay); details: for IC50: B*: testing performed in a first testing facility, read-out: JAK3 IC50 (nM) Relative, B*; for JAKs/HPK1 IC50 Ratio, B*: ratio of JAK3 IC50 to HPK1 IC50, first testing facility
T1 construct: purchased Thermo fisher PV3855
Summary of the method: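 Human JAK3 (0.78 ng) with 0.2 μg/μL Poly(E4Y1) and 4 μM ATP in 40 mM Tris pH 7.5, 20 mM MgCl2, 0.1 mg/ml BSA, 50 μM DTT, 1% DMSO; 60 min at 25 °C. ADP formed read by ADP-Glo luminescence. 10-dose 3-fold series from 10 μM; IC50 by three-parameter logistic fit.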

T1 sequence (P52333 781-1124 limits assumed): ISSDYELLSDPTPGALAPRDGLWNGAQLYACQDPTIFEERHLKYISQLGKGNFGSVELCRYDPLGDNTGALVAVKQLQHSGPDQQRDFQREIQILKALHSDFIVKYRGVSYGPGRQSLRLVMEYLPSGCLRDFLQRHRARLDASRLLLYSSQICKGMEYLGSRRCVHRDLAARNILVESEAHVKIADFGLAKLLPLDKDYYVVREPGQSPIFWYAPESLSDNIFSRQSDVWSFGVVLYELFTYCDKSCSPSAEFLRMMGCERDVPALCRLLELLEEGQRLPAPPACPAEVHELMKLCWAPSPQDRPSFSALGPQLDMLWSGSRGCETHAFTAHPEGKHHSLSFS
HPK1, sequence (Q92918 whole entry): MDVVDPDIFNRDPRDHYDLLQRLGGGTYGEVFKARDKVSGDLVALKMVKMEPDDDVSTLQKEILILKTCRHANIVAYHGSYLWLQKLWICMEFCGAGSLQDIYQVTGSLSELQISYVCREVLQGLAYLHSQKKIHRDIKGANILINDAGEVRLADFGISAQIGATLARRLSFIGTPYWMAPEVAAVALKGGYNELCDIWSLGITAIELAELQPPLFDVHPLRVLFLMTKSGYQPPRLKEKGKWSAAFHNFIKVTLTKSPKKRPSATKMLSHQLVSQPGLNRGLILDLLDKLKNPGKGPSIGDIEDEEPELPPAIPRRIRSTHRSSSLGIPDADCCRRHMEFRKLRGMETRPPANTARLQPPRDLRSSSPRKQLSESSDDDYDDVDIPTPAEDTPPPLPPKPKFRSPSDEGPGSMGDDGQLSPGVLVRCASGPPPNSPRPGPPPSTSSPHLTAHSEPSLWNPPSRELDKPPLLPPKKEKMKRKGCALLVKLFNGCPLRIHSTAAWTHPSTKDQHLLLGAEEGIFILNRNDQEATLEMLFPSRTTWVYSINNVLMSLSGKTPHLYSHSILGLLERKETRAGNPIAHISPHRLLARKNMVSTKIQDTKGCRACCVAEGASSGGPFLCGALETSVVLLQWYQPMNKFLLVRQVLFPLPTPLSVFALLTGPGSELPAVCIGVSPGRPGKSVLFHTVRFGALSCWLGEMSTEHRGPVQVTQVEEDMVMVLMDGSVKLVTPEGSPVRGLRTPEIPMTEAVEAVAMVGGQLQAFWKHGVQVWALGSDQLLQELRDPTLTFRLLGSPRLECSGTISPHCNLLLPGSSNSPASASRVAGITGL

Row | IC50 [1] [nM] | IC50 [2] [nM] | JAKs/HPK1 IC50 Ratio, B* [2] | SMILES
1 | ≤ 100 | ≤ 100 | 29 | CN1CCc2cc(F)c(Nc3ncc(Cl)c(N4CC(C)(CC(=O)O)c5ccccc54)n3)cc2C1 (stereo not drawn) [Example 156]
2 | ≤ 100 | 100 to 500 | 200 | COc1cc2c(cc1Nc1ncc(Cl)c(N3CC(c4nn[nH]n4)c4ccccc43)n1)CN(C)CC2 (stereo not drawn) [Example 100, N-(4-(3-(2H-tetrazol-5-yl)indolin-1-yl)-5-chloropyrimidin-2-yl)-6-methoxy-2-methyl-1,2,3,4-tetrahydroisoquinolin-7-amine]
